Source: patent US9221833B2, “Antiviral compounds” (GILEAD PHARMASSET LLC, priority 2011, dated 2015)
Read-outs that look alike come from different tables or passages of the source.

Assays:
Type in all cases: cell-based, HCV
genotype 1a H77 replicon = assay: microbe, parasite or virus in culture; conditions: Hepatitis C virus
Procedure: (§1) Evaluation of cell-based anti-HCV activity: Antiviral potency (EC50) was determined using a Renilla luciferase (RLuc)-based HCV replicon reporter assay. […] To perform the assay for genotype 2a (with M31 present in NS5A) or 2b, NS5A chimeric genotype 2a JFH-1 replicons that encodes a RLuc-Neo reporter and either genotype 2a J6 strain NS5A gene or genotype 2b MD2b-1 strain NS5A gene (both with M31 present) respectively, were either transiently transfected (t) into Huh-Lunet cells or were established as stably replicating replicon cells (s) is provided. Either cells were dispensed into 384-well plates for EC50 assays. To perform the assay for genotype 3 and 4, NS5A chimeric genotype 1b Con1 replicons that encodes a Pi-RLuc reporter and either genotype 3a S52 strain NS5A gene or genotype 4a ED43 strain NS5A gene respectively, were transiently transfected (t) into Huh-Lunet cells, which were subsequently dispensed into 384-well plates. Compounds were dissolved in DMSO at a concentration of 10 mM and diluted in DMSO either manually or using an automated pipeting instrument. Serially 3-fold diluted compounds were either manually mixed with cell culture media and added to the seeded cells or directly added to the cells using an automated instrument. […] 72 hours later, cells were lysed and Renilla luciferase activity quantified as recommended by the manufacturer (Promega-Madison, Wis.). Non-linear regression was performed to calculate EC50 values.

[1] = tested on: genotype 2a JFH-1 replicon (L31 present in NS5A); assay: microbe, parasite or virus in culture; conditions: Hepatitis C virus, read-out: 2a JFH (nM)
Procedure: as §1

[2] = tested on: genotype 2b MD2b-1 strain NS5A gene (M31 present); assay: microbe, parasite or virus in culture; conditions: Hepatitis C virus
Procedure: as §1

[3] = tested on: genotype 2a J6 strain NS5A gene (M31 present); assay: Replicon assay, NS5A chimeric 2a JFH-1 replicon with 2a J6 NS5A, transient (t) or stable (s), Huh-Lunet cells; conditions: Hepatitis C virus
Procedure: as §1

[4] = tested on: genotype 3a S52 strain NS5A gene; assay: Replicon assay, NS5A chimeric 1b Con1 replicon with 3a NS5A, transiently transfected Huh-Lunet cells; conditions: Hepatitis C virus
Procedure: as §1

Q30R in genotype 1a NS5A = assay: Antiviral potency against resistance mutant, 1a Pi-Rluc replicon in Huh-7-derived cured-51 cells; conditions: Hepatitis C virus
Procedure: as §1
To determine the antiviral potency (EC50) against resistance mutants, resistance mutations, including M28T, Q30R, Q30H, L31M, and Y93C in genotype 1a NS5A and Y93H in genotype 1b NS5A, were introduced individually into either 1a Pi-Rluc or 1b Pi-Rluc replicons by site directed mutagenesis. Replicon RNA of each resistant mutant was transiently transfected into Huh-7-derived cured-51 cells and antiviral potency was determined on these transfected cells as described above.

[5] = tested on: genotype 2a JFH-1 replicon (L31 present in NS5A); assay: microbe, parasite or virus in culture; conditions: Hepatitis C virus, read-out: 2a JFH
[6] = tested on: genotype 4a ED43 strain NS5A gene; assay: Replicon assay, NS5A chimeric 1b Con1 replicon with 4a NS5A, transiently transfected Huh-Lunet cells; conditions: Hepatitis C virus
Procedure: as §1, with “[…],” for “were transiently transfected (t) into Huh-Lunet cells,”

SMILES	EC50 (genotype 1a H77 replicon; read-out: 1a) [nM]	EC50 [1] [nM]	EC50 ([2]; read-out: 2b) [nM]	EC50 ([2]; read-out: 2b (s) (nM)) [nM]	EC50 ([3]; read-out: 2a J6) [nM]	EC50 ([4]; read-out: 3a) [nM]	EC50 (Q30R in genotype 1a NS5A; read-out: 1a Q30R) [nM]	EC50 [5] [nM]	EC50 ([4]; read-out: 3a (nM)) [nM]	EC50 ([6]; read-out: 4a) [nM]	EC50 ([6]; read-out: 4a (s) (nM)) [nM]	EC50 (genotype 1a H77 replicon; read-out: 1a (nM)) [nM]	EC50 ([2]; read-out: 2b (t) (nM)) [nM]	EC50 ([3]; read-out: 2a J6 (t) (nM)) [nM]	EC50 (Q30R in genotype 1a NS5A; read-out: 1a Q30R (nM)) [nM]
COC[C@H]1CC(c2ncc(-c3ccc4c(c3)COc3cc5c(ccc6nc([C@@H]7CC[C@H](C)N7C(=O)[C@@H](NC(=O)OC)C(C)C)[nH]c65)cc3-4)[nH]2)N(C(=O)[C@@H](NC(=O)OC)C(C)OC)C1 (stereo in doubt) [Example QA, Methyl {(2S)-1-[(2S,5S)-2-(9-{2-[(2S,4S)-1-{(2S,3S)-3-methoxy-2-[(methoxycarbonyl)amino]butanoyl}-4-(methoxymethyl)pyrrolidin-2-yl]-1H-imidazol-5-yl}-1,11-dihydroisochromeno[4′,3′:6,7]naphtho[1,2-d]imidazol-2-yl)-5-methylpyrrolidin-1-yl]-3-methyl-1-oxobutan-2-yl}carbamate]	< 1	0.007	< 1	0.04	< 1	< 1	< 1	< 1	–	–	–	–	–	–	–
CCC(C)[C@H](NC(=O)OC)C(=O)N1C[C@@H](C)CC1c1ncc(-c2ccc3c(c2)COc2cc4c(ccc5nc([C@@H]6C[C@H](COC)CN6C(=O)[C@@H](NC(=O)OC)C(C)C)[nH]c54)cc2-3)[nH]1 (stereo in doubt) [Example QC, Methyl {(2S)-1-[(2S,4S)-2-(9-{2-[(2S,4S)-1-{(2S,3R)-2-[(methoxycarbonyl)amino]-3-methylpentanoyl}-4-methylpyrrolidin-2-yl]-1H-imidazol-5-yl}-1,11-dihydroisochromeno[4′,3′:6,7]naphtho[1,2-d]imidazol-2-yl)-4-(methoxymethyl)pyrrolidin-1-yl]-3-methyl-1-oxobutan-2-yl}carbamate]	< 1	0.008	< 1	–	< 1	–	–	< 1	–	–	–	–	–	–	–
COC(=O)N[C@H](C(=O)N1CCC[C@H]1c1nc2c(ccc3cc4c(cc32)OCc2cc(-c3cnc([C@@H]5CCCN5C(=O)[C@H](NC(=O)OC)c5ccccc5)[nH]3)ccc2-4)[nH]1)C(C)C [Example MD]	< 1	0.006	< 1	–	< 1	< 1	< 1	< 1	0.006	< 1	–	–	–	–	–
COC(=O)N[C@H](C(=O)N1CCC[C@H]1c1nc2c([nH]1)CCc1cc3c(cc1-2)OCc1cc(-c2cnc([C@@H]4CCCN4C(=O)[C@H](NC(=O)OC)c4ccccc4)[nH]2)ccc1-3)C(C)C [Example MF, methyl [1-(2-{5-[2-(1-{[(methoxycarbonyl)amino]-3-methyl-1-oxobutan-2-yl}pyrrolidin-2-yl)-1,4,5,11-tetrahydroisochromeno[4′,3′:6,7]naphtho[1,2-d]imidazol-9-yl]-1H-imidazol-2-yl}pyrrolidin-1-yl)-phenyl-1-oxoacet-2-yl]carbamate]	< 1	–	< 1	–	< 1	< 1	< 1	< 1	–	< 1	–	–	–	–	–
COC(=O)N[C@H](C(=O)N1CCC[C@H]1c1ncc(-c2ccc3c(c2)COc2cc4c(cc2-3)CCc2[nH]c([C@@H]3CCCN3C(=O)[C@H](NC(=O)OC)c3ccccc3)nc2-4)[nH]1)C(C)C [Example MG]	< 1	–	< 1	0.07	< 1	< 1	< 1	< 1	0.01	< 1	0.08	–	–	–	–
COC[C@H]1C[C@@H](c2nc3ccc4cc5c(cc4c3[nH]2)OCc2cc(-c3cnc([C@@H]4CCCN4C(=O)[C@H](NC(=O)OC)c4ccccc4)[nH]3)ccc2-5)N(C(=O)[C@@H](NC(=O)OC)C(C)OC)C1 (stereo partly drawn) [Example OU, Methyl {(1R)-2-[(2S)-2-(5-{2-[(2S,4S)-1-{(2S)-2-[(methoxycarbonyl)amino]-3-methoxybutanoyl}-4-(methoxymethyl)pyrrolidin-2-yl]-1,11-dihydroisochromeno[4′,3′:6,7]naphtho[1,2-d]imidazol-9-yl}-1H-imidazol-2-yl)pyrrolidin-1-yl]-2-oxo-1-phenylethyl}carbamate]	< 1	–	< 1	–	–	–	–	< 1	–	–	–	–	–	–	–
COC[C@H]1C[C@@H](c2ncc(-c3ccc4c(c3)COc3cc5c(ccc6nc([C@@H]7CCCN7C(=O)[C@H](NC(=O)OC)c7ccccc7)[nH]c65)cc3-4)[nH]2)N(C(=O)[C@@H](NC(=O)OC)C(C)C)C1 [Example PH, methyl {(2S)-1-[(2S,4S)-2-(5-{2-[(2S)-1-{(2R)-2-[(methoxycarbonyl)amino]-2-phenylacetyl}pyrrolidin-2-yl]-1,11-dihydroisochromeno[4′,3′:6,7]naphtho[1,2-d]imidazol-9-yl}-1H-imidazol-2-yl)-4-(methoxymethyl)pyrrolidin-1-yl]-3-methyl-1-oxobutan-2-yl}carbamate]	< 1	0.014	< 1	–	< 1	< 1	< 1	< 1	0.029	–	–	0.024	0.042	0.055	0.051
CC[C@@H](C)[C@H](NC(=O)OC)C(=O)N1C[C@@H](C)C[C@H]1c1ncc(-c2ccc3c(c2)COc2cc4c(ccc5nc([C@@H]6C[C@H](COC)CN6C(=O)[C@H](NC(=O)OC)c6ccccc6)[nH]c54)cc2-3)[nH]1 [Example QB, Methyl {(1R)-2-[(2S,4S)-2-(9-{2-[(2S,4S)-1-{(2S,3R)-2-[(methoxycarbonyl)amino]-3-methylpentanoyl}-4-methylpyrrolidin-2-yl]-1H-imidazol-5-yl}-1,11-dihydroisochromeno[4′,3′:6,7]naphtho[1,2-d]imidazol-2-yl)-4-(methoxymethyl)pyrrolidin-1-yl]-2-oxo-1-phenylethyl}carbamate]	< 1	0.008	< 1	–	< 1	< 1	< 1	< 1	–	–	–	–	–	–	–
CC[C@@H](C)C(NC(=O)OC)C(=O)N1C[C@@H](COC)C[C@H]1c1nc2ccc3cc4c(cc3c2[nH]1)OCc1cc(-c2cnc([C@@H]3C[C@H](C)CN3C(=O)[C@@H](NC(=O)OC)[C@H](C)CC)[nH]2)ccc1-4 (stereo partly drawn) [Example QE, Methyl {(3R)-1-[(2S,4S)-2-(9-{2-[(2S,4S)-1-{(2S,3R)-2-[(methoxycarbonyl)amino]-3-methylpentanoyl}-4-methylpyrrolidin-2-yl]-1H-imidazol-5-yl}-1,11-dihydroisochromeno[4′,3′:6,7]naphtho[1,2-d]imidazol-2-yl)-4-(methoxymethyl)pyrrolidin-1-yl]-3-methyl-1-oxopentan-2-yl}carbamate]	< 1	–	< 1	–	< 1	–	–	< 1	–	–	–	–	–	–	–
